For 23 compounds, IC50 results are on record in US12325697B2 (Nimbus Clio, Inc., priority 2021, dated 2025).

Molecules are shown by their SMILES.

Sequence of Recombinant human Cbl-b (aa 36-427) (Q13191 36-427): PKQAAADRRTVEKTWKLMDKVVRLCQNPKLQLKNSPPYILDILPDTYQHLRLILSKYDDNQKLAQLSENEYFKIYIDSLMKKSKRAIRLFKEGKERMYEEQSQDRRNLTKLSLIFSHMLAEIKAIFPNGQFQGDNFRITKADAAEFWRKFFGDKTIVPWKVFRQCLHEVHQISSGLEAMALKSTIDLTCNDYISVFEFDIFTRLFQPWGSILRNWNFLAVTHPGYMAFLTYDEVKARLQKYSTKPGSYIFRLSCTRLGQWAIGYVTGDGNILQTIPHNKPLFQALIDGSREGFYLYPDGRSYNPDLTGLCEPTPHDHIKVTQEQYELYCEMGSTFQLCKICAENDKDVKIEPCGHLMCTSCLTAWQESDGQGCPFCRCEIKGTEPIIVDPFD

For the test, the target named is Recombinant human Cbl-b (aa 36-427) (Homo sapiens (Human), UniProt Q13191). As to the kind of experiment: Cbl-b Biochemical Assay (TR-FRET). The note with it: read-out: TR-FRET hCbl-b IC50. On the procedure:
Recombinant human Cbl-b (aa 36-427) was expressed in E. coli, purified and biotinylated in vitro. The protein was diluted to 12 nM in freshly prepared assay buffer consisting of 50 mM HEPES, pH 7.0, 100 mM NaCl, 5 mM MgCl2, 0.01% Triton-X 100, 0.01% BSA and 1 mM DTT. Recombinant human Src (aa 254-536)-[…]-Zap-70 (aa 281-297) fusion protein was expressed in E. coli and purified. Protein was diluted in assay buffer to 2-5 nM and supplemented with ATP to 1 mM. Fluorescein-BODIPY labeled UBE[…]([…])-Ub was prepared by conjugating ubiquitin (Ub) labeled at its N-terminus with Fluorescein-BODIPY maleimide (ThermoFisher Catalog no B10250) to E. coli expressed and purified UBE[…]([…]) [see Dou et al Nature Structural and Molecular Biology 8: 982-987, 2013]. Recombinant human UBE2D2([…]) was expressed in E. coli, purified and ubiquitinated and Bodipy labelled in vitro. Protein was diluted to 200 nM in assay buffer without MgCl2 (or Cisbio PPI buffer). Streptavidin-Terbium was added to 2 nM and EDTA to 10 mM, to provide a binding assay mix. Compounds were dissolved in DMSO and diluted to prepare a ten-point dilution series. 100 nl of each compound concentration was dispensed in duplicate in a 384 well black assay plate using acoustic dispensing. Wells for maximum signal controls received 100 nl of DMSO only and wells for minimum signal controls received 100 nl of a reference inhibitor compound at a final assay concentration of […] to produce 100% inhibition. 5 μl of diluted Cbl-b enzyme was added to all wells of the assay plate and incubated at RT for 30-60 min. The enzyme assay was initiated by addition of 5 μl of Src-Zap/ATP mix to all wells, and the plate incubated at RT for 60 min. The enzyme reaction was terminated and the binding reaction was initiated by adding 10 μl of binding assay mix to all wells and incubating the plate at RT for 60 min prior to assay read. Final assay conditions consisted of 6 nM Cbl-b, 1-2.5 nM Src-Zap70, 0.5 mM ATP, 1% (v/v) DMSO (enzyme reaction) and 100 nM UBE2D2([…])-Ub-FL-BODIPY, 5 mM EDTA, 1 nM Streptavidin-Tb (binding reaction). The HTRF assay signal was measured at 520 nm on an Envision plate reader, with reference signal at 485 or 620 nm. Data was normalized using maximum and minimum assay controls: % Inhibition=100-(100*((maximum control)-unknown)/(maximum control-minimum control)). A 4-parameter dose-response equation was used to fit the normalized dose-response data and derive an IC50 for test compounds.
A general note: Time-resolved FRET reads energy transfer from a long-lived donor to a nearby acceptor.
Regarding `CCNc1cc(-c2c(-c3nncn3C)cnn2C)cc(N2Cc3c(cccc3C(F)(F)F)C2=O)n1` [ACO-1, 2-(6-(Ethylamino)-4-(1-methyl-4-(4-methyl-4H-1,2,4-triazol-3-yl)-1H-pyrazol-5-yl)pyridin-2-yl)-4-(trifluoromethyl)isoindolin-1-one], the concentration for half-maximal inhibition (IC50) was at most 200 nM.

In the case of `Cn1cnnc1-c1cnccc1-c1cccc(N2Cc3c(cccc3C(F)(F)F)C2=O)c1` [AAY-6, 2-[3-[3-(4-Methyl-1,2,4-triazol-3-yl)-pyridin-4-yl]-phenyl]-4-(trifluoromethyl)-3H-isoindol-1-one], the IC50 lay within 1000 to 10000 nM.

As to `CCn1cc(-c2nncn2C)c(-c2cccc(N3Cc4c(cccc4C(F)(F)F)C3=O)c2)n1` [AAF-9, 2-[3-[1-Ethyl-4-(4-methyl-1,2,4-triazol-3-yl)pyrazol-3-yl]phenyl]-4-(trifluoromethyl)-3H-isoindol-1-one], the IC50 lay in the range of 10000 to 50000 nM.

As for `CCNc1cc(-c2c(-c3nncn3C)cnn2C)cc(N2Cc3c(cc(CN4CCC[C@@H](C)C4)cc3C(F)(F)F)C2=O)n1` [ACE-1, (R)-2-(6-(Ethylamino)-4-(1-methyl-4-(4-methyl-4H-1,2,4-triazol-3-yl)-1H-pyrazol-5-yl)pyridin-2-yl)-6-((3-methylpiperidin-1-yl)methyl)-4-(trifluoromethyl) isoindolin-1-one], the half-inhibitory concentration (IC50) was at most 200 nM.

For the compound `CCNc1cc(-c2c(-c3nncn3C)cnn2C)cc(N2Cc3c(cc(C(=O)N4CC[C@@H](O)C4)cc3C(F)(F)F)C2=O)n1` [ACT-2, (R)-2-(6-(Ethylamino)-4-(1-methyl-4-(4-methyl-4H-1,2,4-triazol-3-yl)-1H-pyrazol-5-yl)pyridin-2-yl)-6-(3-hydroxypyrrolidine-1-carbonyl)-4-(trifluoromethyl)isoindolin-1-one], the IC50 is at most 200 nM.

Regarding `Cn1cnnc1-c1ccccc1-c1cccc(NC(=O)c2cc(=O)[nH]c(C3CC3)n2)c1` [AAP-1, 2-Cyclopropyl-N-(2′-(4-methyl-4H-1,2,4-triazol-3-yl)-[1,1′-biphenyl]-3-yl)-6-oxo-1,6-dihydropyrimidine-4-carboxamide], the IC50 was 1000 to 10000 nM.

Consider `Cn1cnnc1-c1ccccc1-c1cc(C(=O)O)cc(N2Cc3c(cccc3C(F)(F)F)C2=O)c1` [Example I-1, 2′-(4-Methyl-4H-1,2,4-triazol-3-yl)-5-(1-oxo-4-(trifluoromethyl)isoindolin-2-yl)-[1,1′-biphenyl]-3-carboxylic acid], for which the 50% inhibitory concentration (IC50) fell in the range of 10000 to 50000 nM.

For `Cn1cnnc1-c1cnn(C)c1-c1cc(NS(C)(=O)=O)nc(N2Cc3c(cccc3C(F)(F)F)C2=O)c1` [AAW-2, N-(4-(1-Methyl-4-(4-methyl-4H-1,2,4-triazol-3-yl)-1H-pyrazol-5-yl)-6-(1-oxo-4-(trifluoromethyl)isoindolin-2-yl)pyridin-2-yl)methanesulfonamide], the IC50 lay within 1000 to 10000 nM.

`CCNc1cc(-c2ccccc2-c2nncn2C)cc(N2Cc3c(cc(CN[C@H]4CCC[C@@H]4O)cc3C(F)(F)F)C2=O)n1` [AP-1, 2-(6-(Ethylamino)-4-(2-(4-methyl-4H-1,2,4-triazol-3-yl)phenyl)pyridin-2-yl)-6-((((1S,2S)-2-hydroxycyclopentyl)amino)methyl)-4-(trifluoromethyl)isoindolin-1-one]: the IC50 is at most 200 nM.

Take `Cn1cnnc1-c1cnn(C)c1-c1cc(CN)nc(N2Cc3c(cccc3C(F)(F)F)C2=O)c1` [ABG-3, 2-(6-(Aminomethyl)-4-(1-methyl-4-(4-methyl-4H-1,2,4-triazol-3-yl)-1H-pyrazol-5-yl)pyridin-2-yl)-4-(trifluoromethyl)isoindolin-1-one]: the IC50 fell in the range of 10000 to 50000 nM.

`Cn1cnnc1-c1ccccc1-c1cc(C2CC2)nc(N2Cc3c(cc(CO)cc3C(F)(F)F)C2=O)c1` [ACK-3, 2-(6-Cyclopropyl-4-(2-(4-methyl-4H-1,2,4-triazol-3-yl)phenyl)pyridin-2-yl)-6-(hydroxymethyl)-4-(trifluoromethyl)isoindolin-1-one]: the IC50 is at most 200 nM.

On to `CCNc1cc(-c2c(-c3nncn3C)cnn2C)cc(N2Cc3c(cc(OC4CN(C)C4)cc3C(F)(F)F)C2=O)n1` [ACV-2, 2-(6-(Ethylamino)-4-(1-methyl-4-(4-methyl-4H-1,2,4-triazol-3-yl)-1H-pyrazol-5-yl)pyridin-2-yl)-6-((1-methylazetidin-3-yl)oxy)-4-(trifluoromethyl)isoindolin-1-one], for which the IC50 was at most 200 nM.

In the case of `CCNc1cc(-c2ccccc2-c2nncn2C)cc(N2Cc3c(cc(CN4CC(F)C4)cc3C(F)(F)F)C2=O)n1` [AG-1, 2-(6-(Ethylamino)-4-(2-(4-methyl-4H-1,2,4-triazol-3-yl)phenyl)pyridin-2-yl)-6-((3-fluoroazetidin-1-yl)methyl)-4-(trifluoromethyl)isoindolin-1-one], the IC50 is at most 200 nM.

Turning to `Cn1cnnc1-c1ccccc1-c1cccc(N2Cc3c(cc(CN4CC[C@H](F)C4)cc3C(F)(F)F)C2=O)c1` [Example V-2, (S)-6-((3-Fluoropyrrolidin-1-yl)methyl)-2-(2′-(4-methyl-4H-1,2,4-triazol-3-yl)-[1,1′-biphenyl]-3-yl)-4-(trifluoromethyl)isoindolin-1-one], the IC50 is at most 200 nM.

For the compound `CCNc1cc(-c2ccccc2-c2nncn2C)cc(N2Cc3c(cc(CN4CCO[C@H](C)C4)cc3C(F)(F)F)C2=O)n1` [AN-1, (R)-2-(6-(Ethylamino)-4-(2-(4-methyl-4H-1,2,4-triazol-3-yl)phenyl)pyridin-2-yl)-6-((2-methylmorpholino)methyl)-4-(trifluoromethyl)isoindolin-1-one], the IC50 was at most 200 nM.

Consider `CC(C)Nc1cc(-c2c(-c3nncn3C)cnn2C)cc(N2Cc3c(cccc3C(F)(F)F)C2=O)n1` [ABI-1, 2-(6-(Isopropylamino)-4-(1-methyl-4-(4-methyl-4H-1,2,4-triazol-3-yl)-1H-pyrazol-5-yl)pyridin-2-yl)-4-(trifluoromethyl)isoindolin-1-one], for which the IC50 is at most 200 nM.

For the compound `Cn1cnnc1-c1ccccc1-c1cc(Cl)nc(N2Cc3c(cccc3C(F)(F)F)C2=O)c1` [AAT-1, 2-(6-Chloro-4-(2-(4-methyl-4H-1,2,4-triazol-3-yl)phenyl)pyridin-2-yl)-4-(trifluoromethyl)isoindolin-1-one], the IC50 lay within 200 to 1000 nM.

On to `CCNc1cc(-c2c(-c3nncn3C)cnn2C)cc(NC(=O)c2cc(C)nc(C3CC3)n2)n1` [ABJ-4, 2-Cyclopropyl-N-(6-(ethylamino)-4-(1-methyl-4-(4-methyl-4H-1,2,4-triazol-3-yl)-1H-pyrazol-5-yl)pyridin-2-yl)-6-methylpyrimidine-4-carboxamide], for which the IC50 fell in the range of 200 to 1000 nM.

As to `Cn1cnnc1-c1ccccc1-c1cc(C2CC2)nc(N2Cc3c(cc(CN4CCC5(CC5)C4)cc3C(F)(F)F)C2=O)c1` [ACL-1, 6-((5-Azaspiro [2.4]heptan-5-yl)methyl)-2-(6-cyclopropyl-4-(2-(4-methyl-4H-1,2,4-triazol-3-yl)phenyl)pyridin-2-yl)-4-(trifluoromethyl)isoindolin-1-one], the IC50 was at most 200 nM.

Regarding `Cn1cnnc1-c1cnn(C)c1-c1cccc(NC(=O)c2cc(=O)n(C)c(C3CC3)n2)c1` [AAE-6, 2-Cyclopropyl-1-methyl-N-[3-[2-methyl-4-(4-methyl-1,2,4-triazol-3-yl)pyrazol-3-yl]phenyl]-6-oxopyrimidine-4-carboxamide], the 50% inhibitory concentration (IC50) lay within 10000 to 50000 nM.

With `Cn1cnnc1-c1cnn(C)c1-c1ccnc(N2Cc3c(cccc3C(F)(F)F)C2=O)c1` [AAM-3, 2-(4-(1-Methyl-4-(4-methyl-4H-1,2,4-triazol-3-yl)-1H-pyrazol-5-yl)pyridin-2-yl)-4-(trifluoromethyl)isoindolin-1-one], the IC50 lay within 1000 to 10000 nM.

`Cn1cnnc1-c1ccccc1-c1cc(CO)cc(N2Cc3c(cccc3C(F)(F)F)C2=O)c1` [Example N-5, 2-(5-(Hydroxymethyl)-2′-(4-methyl-4H-1,2,4-triazol-3-yl)-[1,1′-biphenyl]-3-yl)-4-(trifluoromethyl)isoindolin-1-one]: the concentration for half-maximal inhibition (IC50) was in the range of 1000 to 10000 nM.

In the case of `C[C@H]1CN(Cc2cc3c(c(C(F)(F)F)c2)CN(c2cccc(-c4ccccc4-c4nncn4C)c2)C3=O)CCO1` [AB-2, (S)-2-(2′-(4-Methyl-4H-1,2,4-triazol-3-yl)-[1,1′-biphenyl]-3-yl)-6-((2-methylmorpholino)methyl)-4-(trifluoromethyl)isoindolin-1-one], the IC50 is at most 200 nM.

What is called IC50 is the concentration needed to halve the response being measured.
